In ChEMBL document CHEMBL1158365, “Alkyne chemistry in crop protection” (2009) one finds ED85 and EC80 data, which are given here for 22 compounds.

≈ marks a conversion by molar mass, not a printed value.

Type in all cases: functional
One test deals with Abutilon theophrasti. As to the kind of experiment: Herbicidal activity against Abutilon theophrasti.
A further test concerns Ipomoea purpurea. As to the kind of experiment: Herbicidal activity against Ipomoea purpurea.
In the next test the test system is Phytophthora infestans. As to the kind of experiment: Antioomycetic activity against Phytophthora infestans.
The subject of the next test is Plasmopara viticola. As to the kind of experiment: Antioomycetic activity against Plasmopara viticola.

With `Cn1c(C(F)(F)F)cc(=O)n(-c2cc3c(ccc(=O)n3C)cc2F)c1=O`, the ED85 in the test with Abutilon theophrasti and with Ipomoea purpurea was 10 g/ha throughout.
Turning to `C#CCOc1ccc(CCNC(=O)C(OC)c2ccc(Cl)cc2)cc1OC` (centres undefined), the figures for the EC80 in the test with Phytophthora infestans and in the test on Plasmopara viticola were 9.7 µg/mL (≈ 25 µM) and 3.5 µg/mL (≈ 9.02 µM), respectively.
The matching figures for `C#CCOc1ccc(CCNC(=O)C(OC(=O)CC)c2ccc(Cl)cc2)cc1OC` (centres undefined): 4.2 µg/mL (≈ 9.77 µM) and 2.8 µg/mL (≈ 6.51 µM).
In the case of `CCCn1c(=O)ccc2cc(F)c(-n3c(=O)cc(C(F)(F)F)n(C)c3=O)cc21`, the ED85 in the test with Abutilon theophrasti is on record as 10 g/ha; in the test on Ipomoea purpurea, 30 g/ha.
Take `C#CCOc1ccc(CCNC(=O)C(OCC)c2ccc(Cl)cc2)cc1OC` (centres undefined): the concentration for an effect of 80% (EC80) with Phytophthora infestans came to 4.6 µg/mL (≈ 11.4 µM); with Plasmopara viticola, 2 µg/mL (≈ 4.98 µM).
Regarding `Cn1c(C(F)(F)F)cc(=O)n(-c2cc3[nH]c(=O)ccc3cc2F)c1=O`, the ED85 in the test with Abutilon theophrasti and in the test with Ipomoea purpurea was 30 g/ha in each case.
`C#CCOc1ccc(CCNC(=O)C(OC(C)C)c2ccc(Cl)cc2)cc1OC` (centres undefined): the EC80 in the test on Phytophthora infestans was 3.1 µg/mL (≈ 7.45 µM); in the test on Plasmopara viticola it was 10.1 µg/mL (≈ 24.3 µM).
In the same order, the values of `C#CCOc1ccc(CCNC(=O)C(O)c2ccc(Cl)cc2)cc1OC` (centres undefined) are 34.6 µg/mL (≈ 92.6 µM) and 10.4 µg/mL (≈ 27.8 µM).
Take `CC(C)Cn1c(=O)ccc2cc(F)c(-n3c(=O)cc(C(F)(F)F)n(C)c3=O)cc21`: the ED85 with Abutilon theophrasti was found to be 10 g/ha; in the test with Ipomoea purpurea it was 30 g/ha.
For the compound `C#CCOc1ccc(CCNC(=O)C(OCCC)c2ccc(Cl)cc2)cc1OC` (centres undefined), the results for the 80% effect concentration (EC80) in the test on Phytophthora infestans and in the test with Plasmopara viticola were 5.4 µg/mL (≈ 13 µM) and 31 µg/mL (≈ 74.5 µM), respectively.
Regarding `C#CCOc1ccc(CCNC(=O)C(OC(=O)OC)c2ccc(Cl)cc2)cc1OC` (centres undefined), the EC80 is 38.6 µg/mL (≈ 89.4 µM) with Phytophthora infestans and 110 µg/mL (≈ 254 µM) with Plasmopara viticola.
Consider `C=CCn1c(=O)ccc2cc(F)c(-n3c(=O)cc(C(F)(F)F)n(C)c3=O)cc21`, for which the ED85 in the test with Abutilon theophrasti is 1 g/ha; in the test on Ipomoea purpurea, 3 g/ha.
As to `C#CCOc1ccc(CCNC(=O)C(OCCF)c2ccc(Cl)cc2)cc1OC` (centres undefined), the figures for the EC80 in the test on Phytophthora infestans and in the test on Plasmopara viticola were 4.7 µg/mL (≈ 11.2 µM) and 8.9 µg/mL (≈ 21.2 µM), respectively.
In the case of `Cn1c(C(F)(F)F)cc(=O)n(-c2cc3c(ccc(=O)n3CC#N)cc2F)c1=O`, the ED85 with Abutilon theophrasti was 10 g/ha; in the test on Ipomoea purpurea it was 30 g/ha.
Turning to `C#CCOc1ccc(CCNC(=O)C(OC(C)(C)C#C)c2ccc(Cl)cc2)cc1OC` (centres undefined), the concentration for an effect of 80% (EC80) with Phytophthora infestans is 4.9 µg/mL (≈ 11.1 µM); in the test on Plasmopara viticola it was 3.5 µg/mL (≈ 7.96 µM).
Take `COC(=O)Cn1c(=O)ccc2cc(F)c(-n3c(=O)cc(C(F)(F)F)n(C)c3=O)cc21`: the ED85 in the test with Abutilon theophrasti was 10 g/ha; with Ipomoea purpurea it was 100 g/ha.
As to `CCn1c(=O)ccc2cc(F)c(-n3c(=O)cc(C(F)(F)F)n(C)c3=O)cc21`, the ED85 with Abutilon theophrasti worked out at 3 g/ha; in the test with Ipomoea purpurea, 10 g/ha.
Take `C#CCOc1ccc(CCNC(=O)C(OC(=O)CC#N)c2ccc(Cl)cc2)cc1OC` (centres undefined): the values for the EC80 with Phytophthora infestans and with Plasmopara viticola were 3.1 µg/mL (≈ 7.03 µM) and 4.9 µg/mL (≈ 11.1 µM), respectively.
`C#CCOc1ccc(CCNC(=O)C(OCC#CC)c2ccc(Cl)cc2)cc1OC` (centres undefined): the values for the EC80 with Phytophthora infestans and in the test on Plasmopara viticola were 18.3 µg/mL (≈ 43 µM) and 14 µg/mL (≈ 32.9 µM), respectively.
In the same order, the values of `C#CCOc1ccc(CCNC(=O)C(OCC=C)c2ccc(Cl)cc2)cc1OC` (centres undefined) are 44.1 µg/mL (≈ 107 µM) and 18.6 µg/mL (≈ 44.9 µM).
As to `C#CCn1c(=O)ccc2cc(F)c(-n3c(=O)cc(C(F)(F)F)n(C)c3=O)cc21`, the ED85 is listed as 1 g/ha in the test with Abutilon theophrasti and 3 g/ha in the test with Ipomoea purpurea.
Take `C#CCOc1ccc(CCNC(=O)C(OCC#C)c2ccc(Cl)cc2)cc1OC` (centres undefined) [MANDIPROPAMID]: the 80% effect concentration (EC80) worked out at 0.1 µg/mL (≈ 0.243 µM) in the test with Phytophthora infestans and 1.2 µg/mL (≈ 2.91 µM) in the test with Plasmopara viticola.
